Data as given in ChEMBL document CHEMBL1201862, “PubChem BioAssay data set” (2004).
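Where inhibition never reached the appropriate level, the endpoint shown equals the highest concentration tested. Otherwise, values were interpolated linearly from a five-concentration, 48-hour dose response in 96-well plates. GI50 marks 50% less growth.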 Calls of active or inactive are those of the source. Cut-off read from the data, not from the text of the source: active = GI50 up to about 1.1 µM and inactive = higher.

Assays:
Assay in all cases: NCI tumour cell line growth inhibition, 48 h
COLO 205 = system: COLO 205
OVCAR-4 = system: OVCAR-4
KM12 = system: KM12
UACC-62 = system: UACC-62
UO-31 = system: UO-31
NCI-H460 = system: NCI-H460
SF-539 = system: SF-539
OVCAR-5 = system: OVCAR-5
EKVX = system: EKVX
CAKI-1 = system: CAKI-1
RPMI-8226 = system: RPMI-8226
UACC-257 = system: UACC-257
HCT-15 = system: HCT-15
A498 = system: A498
PC-3 = system: PC-3
MCF7 = system: MCF7
SF-295 = system: SF-295
MOLT-4 = system: MOLT-4
IGROV-1 = system: IGROV-1
SR = system: SR

Row | SMILES | GI50 (COLO 205) | GI50 (OVCAR-4) | GI50 (KM12) | GI50 (UACC-62) | GI50 (UO-31) | GI50 (NCI-H460) | GI50 (SF-539) | GI50 (OVCAR-5) | GI50 (EKVX) | GI50 (CAKI-1) | GI50 (RPMI-8226) | GI50 (UACC-257) | GI50 (HCT-15) [µM] | GI50 (A498) | GI50 (PC-3) | GI50 (MCF7) | GI50 (SF-295) | GI50 (MOLT-4) | GI50 (IGROV-1) | GI50 (SR)
1 | CCC1C(=O)OCc2c1cc1n(c2=O)Cc2cc3ccccc3nc2-1 (configuration not stated) | 72.3 µM (inactive) | > 81.8 µM (inactive) | 50.9 µM (inactive) | 3.72 µM (inactive) | 2.37 µM (inactive) | 0.802 µM (active) | 1.73 µM (inactive) | 33.4 µM (inactive) | 77.6 µM (inactive) | 2.17 µM (inactive) | 12.4 µM (inactive) | 50.7 µM (inactive) | 43.4 | 10.7 µM (inactive) | 15.4 µM (inactive) | 1.59 µM (inactive) | 2.38 µM (inactive) | 0.733 µM (active) | 17.6 µM (inactive) | 
2 | Cc1cccc2c(N)c3cccc(C(=O)NCC[N+](C)(C)Cc4sc(N5CCOCC5)nc4[N+](=O)[O-])c3nc12 | 1.2 µM (inactive) | 4.11 µM (inactive) | 2.43 µM (inactive) | 3.89 µM (inactive) | 4.17 µM (inactive) |  | 1.12 µM (active) | 1.32 µM (inactive) | 4.26 µM (inactive) | 0.344 µM (active) | 3.13 µM (inactive) | 6.9 µM (inactive) | 1.08 | 11.4 µM (inactive) | 3.37 µM (inactive) | 0.438 µM (active) | 1.1 µM (active) | 0.231 µM (active) | 1.25 µM (inactive) | 
3 | O=C1O[B-](c2ccccc2)(c2ccccc2)[NH+]2CCCC12 (configuration not stated) | 31.6 µM (inactive) | > 100 µM (inactive) | > 100 µM (inactive) | > 100 µM (inactive) | 34.6 µM (inactive) | > 100 µM (inactive) | 55.6 µM (inactive) | > 100 µM (inactive) | > 100 µM (inactive) | 47.4 µM (inactive) | 72.8 µM (inactive) | 64.9 µM (inactive) | 59.3 | 55.7 µM (inactive) | 35 µM (inactive) |  | > 100 µM (inactive) | > 100 µM (inactive) | > 100 µM (inactive) | > 100 µM (inactive)
4 | CCOC(=O)C1=C(Nc2cccc3ccccc23)OC/C1=N\NC(=O)c1ccccc1O | 15.5 µM (inactive) | 9.68 µM (inactive) | 25.3 µM (inactive) | 6.53 µM (inactive) | 4.88 µM (inactive) | 14.8 µM (inactive) | 10.6 µM (inactive) | 20.6 µM (inactive) | 21.3 µM (inactive) | 7.28 µM (inactive) | 16.7 µM (inactive) | 22.9 µM (inactive) | 14.7 | 19.5 µM (inactive) |  |  | 22.8 µM (inactive) | 12.6 µM (inactive) | 4.26 µM (inactive) | 7.55 µM (inactive)
5 | CCn1c2c(c3ccccc3c1=O)C(=O)c1ccccc1-2 | > 100 µM (inactive) | > 100 µM (inactive) | > 100 µM (inactive) | > 100 µM (inactive) | > 100 µM (inactive) |  | 19.1 µM (inactive) | > 100 µM (inactive) | > 100 µM (inactive) | > 100 µM (inactive) | > 100 µM (inactive) | > 100 µM (inactive) | > 100 | > 100 µM (inactive) | > 100 µM (inactive) | > 100 µM (inactive) | > 100 µM (inactive) | 3.12 µM (inactive) | > 100 µM (inactive) | 
6 | Cc1cccc2cc3c(ccc4ccccc43)c[n+]12 | 13.3 µM (inactive) |  | 2.75 µM (inactive) | 23 µM (inactive) | 30.1 µM (inactive) | 27.2 µM (inactive) | 16.7 µM (inactive) | > 100 µM (inactive) | 4.61 µM (inactive) |  | 22.5 µM (inactive) | 14 µM (inactive) | > 100 |  | 30.9 µM (inactive) | 13.5 µM (inactive) | 9.86 µM (inactive) | 4.89 µM (inactive) | 47.1 µM (inactive) | 6.43 µM (inactive)
7 | C=CCN1CCC(O)(c2cc(C(=O)OCC)[nH]c2-c2cc(C)no2)C1 (configuration not stated) | > 100 µM (inactive) | > 100 µM (inactive) | > 100 µM (inactive) | > 100 µM (inactive) | > 100 µM (inactive) | > 100 µM (inactive) | > 100 µM (inactive) | > 100 µM (inactive) | > 100 µM (inactive) | > 100 µM (inactive) | > 100 µM (inactive) | > 100 µM (inactive) | > 100 | > 100 µM (inactive) | > 100 µM (inactive) |  | > 100 µM (inactive) | > 100 µM (inactive) | > 100 µM (inactive) | 
8 | O=C(O)CCC(=O)OC1N=C(c2ccccc2Cl)c2cc([N+](=O)[O-])ccc2NC1=O (configuration not stated) |  | 42.2 µM (inactive) | 40.7 µM (inactive) | > 100 µM (inactive) | 44.6 µM (inactive) | > 100 µM (inactive) |  | > 100 µM (inactive) | > 100 µM (inactive) | > 100 µM (inactive) |  | > 100 µM (inactive) | 36.7 | > 100 µM (inactive) | 23.6 µM (inactive) | 33 µM (inactive) | > 100 µM (inactive) |  | 95.9 µM (inactive) | 
